Reference: PubChem BioAssay (NCI)
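Briefly, cells in 96-well plates were exposed to five compound concentrations for 48 h, and endpoints were estimated by linear interpolation. Here, GI50 denotes the concentration required for 50% inhibition of growth. At the TGI there is no net growth.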

Experiments:
Test in all cases: inhibition of tumour cell growth, NCI panel, 48 h
CCRF-CEM leukemia = tested on: CCRF-CEM leukemia
HCC-2998 colon = tested on: HCC-2998 colon
HCT-15 colon = tested on: HCT-15 colon
HL-60(TB) leukemia = tested on: HL-60(TB) leukemia
HOP-62 NSCLC = tested on: HOP-62 NSCLC
MALME-3M melanoma = tested on: MALME-3M melanoma
MOLT-4 leukemia = tested on: MOLT-4 leukemia
RPMI-8226 leukemia = tested on: RPMI-8226 leukemia
UO-31 renal = tested on: UO-31 renal
MDA-MB-231 breast = tested on: MDA-MB-231 breast

Row | Structure (SMILES) | TGI (CCRF-CEM leukemia) | TGI (HCC-2998 colon) | TGI (HCT-15 colon) | TGI (HL-60(TB) leukemia) | TGI (HOP-62 NSCLC) | TGI (MALME-3M melanoma) | TGI (MOLT-4 leukemia) | TGI (RPMI-8226 leukemia) | TGI (UO-31 renal) | TGI (MDA-MB-231 breast) | GI50 (HCC-2998 colon) | GI50 (HCT-15 colon) | GI50 (HL-60(TB) leukemia) | GI50 (HOP-62 NSCLC) | GI50 (MDA-MB-231 breast) | GI50 (RPMI-8226 leukemia) | GI50 (UO-31 renal) | GI50 (CCRF-CEM leukemia) | GI50 (MALME-3M melanoma) | GI50 (MOLT-4 leukemia)
1 | CC(=O)NC1=C(C)C(=O)c2c(nc3n2CCC3O)C1=N (stereo not given) | > 100 µM | 45.7 µM | 41.1 µM | > 100 µM | > 100 µM | 18.8 µM | > 100 µM | > 100 µM | 46.6 µM |  |  |  |  |  |  |  |  |  |  | 
2 | CCC(CC)n1c(C)nc2c1C(=O)c1ccccc1C2=O | > 100 µM | > 100 µM | > 100 µM | > 100 µM | > 100 µM | 73.6 µM | > 100 µM |  | > 100 µM |  |  |  |  |  |  |  |  |  |  | 
3 | CC(C)C1CC(O)O[C@@H]([C@@H](C)[C@H]2CC(=O)[C@@H]3[C@@H]4[C@@H](O)[C@H](O)[C@H]5[C@@H](O)[C@H](O)CC[C@]5(C)[C@H]4CC[C@]23C)C1 (stereo not given in full) | > 100 µM | > 100 µM | > 100 µM | > 100 µM | 61.4 µM | > 100 µM | > 100 µM |  | > 100 µM |  |  |  |  |  |  |  |  |  |  | 
4 | CC1=C(O)C(=O)C2C(=O)C1C(C)C2c1ccc(Cl)cc1 (stereo not given) | > 100 µM | > 100 µM | > 100 µM | > 100 µM | > 100 µM | > 100 µM | > 100 µM | > 100 µM | > 100 µM |  |  |  |  |  |  |  |  |  |  | 
5 | CC12CCC(=O)C=C1CCC1C2C(O)CC2(C)C(c3csc(N)n3)CCC12 (stereo not given) |  | > 100 µM | > 100 µM |  | > 100 µM | > 100 µM | > 100 µM | > 100 µM | > 100 µM | > 100 µM |  |  |  |  |  |  |  |  |  | 
6 | NNC(=O)CCC(=O)NC1C2CC3CC(C2)CC1C3 (stereo not given) | > 100 µM | > 100 µM | > 100 µM | > 100 µM | > 100 µM | > 100 µM | > 100 µM | > 100 µM | > 100 µM |  |  |  |  |  |  |  |  |  |  | 
7 | NC(=O)N1N=C2c3ccccc3SC[C@H]2[C@@H]1c1ccccc1 | 70.7 µM | > 100 µM | > 100 µM | 55 µM | 65.6 µM | > 100 µM | 77.4 µM | 87.5 µM | 82.9 µM |  |  |  |  |  |  |  |  |  |  | 
8 | O=C(CSC(=S)N1CCOCC1)Nc1nc2c(s1)CCCC2 | > 100 µM | 61.2 µM | > 100 µM | > 100 µM | > 100 µM | > 100 µM | > 100 µM | > 100 µM | > 100 µM |  |  |  |  |  |  |  |  |  |  | 
9 | COc1ccc(-c2cncn2-c2ccc(OC)cc2)cc1 |  | 32.2 µM | > 100 µM | 26.2 µM | 67.4 µM |  |  | 32.5 µM | 53.6 µM | 71 µM | 16.7 µM | 19.6 µM | 9.06 µM | 22.8 µM | 21.3 µM | 10.9 µM | 17.2 µM |  |  | 
10 | CC/C=C\C/C=C\C/C=C\CCCCCCCC(=O)OCC | > 100 µM | > 100 µM |  | > 100 µM | > 100 µM | > 100 µM | > 100 µM | > 100 µM | > 100 µM |  |  |  |  |  |  |  |  |  |  | 
11 | CC(=O)OC1c2ccccc2CCCCCCC12OCCO2 (stereo not given) | > 100 µM | > 100 µM | > 100 µM | > 100 µM | > 100 µM | > 100 µM | > 100 µM | > 100 µM | > 100 µM |  |  |  |  |  |  |  |  |  |  | 
12 | CCCCn1cnc2c(SC)ncnc21 |  | > 100 µM | > 100 µM |  | > 100 µM | > 100 µM | > 100 µM | > 100 µM | > 100 µM | > 100 µM |  |  |  |  |  |  |  |  |  | 
13 | COc1ccc(NC(=O)c2cc(OC)c(OC)c(OC)c2)cc1 | > 100 µM | > 100 µM | > 100 µM | 68 µM | 99.7 µM | 97.7 µM | > 100 µM | > 100 µM | > 100 µM |  |  |  |  |  |  |  |  |  |  | 
14 | CCC12CCCC(=O)N1C(CO)C(c1ccccc1)O2 (stereo not given) | > 100 µM |  | > 100 µM |  | > 100 µM | > 100 µM |  | > 100 µM |  |  |  |  |  |  |  |  |  |  |  | 
15 | COc1cc(CNc2ccc(C(C)C)cc2)cc(OC)c1OC | 50.5 µM |  | 31.2 µM |  | 55.1 µM | 45.6 µM | 73 µM | 38.2 µM | 45.3 µM |  |  |  |  |  |  |  |  |  |  | 
16 | CCOC(=O)NN1C(=O)C(=P(c2ccccc2)(c2ccccc2)c2ccccc2)C(C(=O)OCC)=C1C | > 100 µM | > 100 µM | > 100 µM | > 100 µM | > 100 µM | > 100 µM | > 100 µM | > 100 µM | > 100 µM |  |  |  |  |  |  |  |  |  |  | 
17 | O=C1C(Cl)=C(Nc2cccc(O)c2)C(=O)N1c1cc(Cl)c(Cl)cc1Cl | > 100 µM | 34.8 µM | 30.1 µM |  | 36.9 µM | 23.4 µM | 37.2 µM | 45.8 µM | 26.4 µM | 29.5 µM | 19.1 µM | 15.1 µM |  | 21.3 µM | 12.7 µM | 14.4 µM | 13.5 µM | 0.45 µM | 7.29 µM | 12.7 µM
18 | N[C@H](C(=O)O)[C@H](Cl)CC(=O)O | > 100 µM | > 100 µM | > 100 µM | > 100 µM | > 100 µM | > 100 µM | > 100 µM |  | > 100 µM |  |  |  |  |  |  |  |  |  |  | 
19 | CC(=O)Oc1ccc(O)c(O)c1C/C=C(\C)CC/C=C(\C)CC/C=C(\C)CCC=C(C)C |  | 2.26 µM |  | 4.11 µM | 2.81 µM | 0.782 µM |  |  | 2.74 µM |  |  |  |  |  |  |  |  |  |  | 
20 | Cc1cccc(C(C)C)c1NC(=O)C(=O)CC(=O)c1c(C)n([O-])c2ccccc2[n+]1=O | 99.7 µM | > 100 µM | 62.2 µM | > 100 µM | > 100 µM | 44.1 µM | 59.8 µM | 72.1 µM | > 100 µM |  |  |  |  |  |  |  |  |  |  | 
21 | O=C(CN1CCN(c2ccccc2)CC1)N1CCc2c([nH]c3ccccc23)C1c1cccnc1 (stereo not given) | > 100 µM | > 100 µM | > 100 µM | > 100 µM | > 100 µM | > 100 µM | > 100 µM | > 100 µM | > 100 µM |  |  |  |  |  |  |  |  |  |  | 
22 | COc1ccc2oc3cccc(NCCN(C)C)c3c(=O)c2c1 | 32.1 µM | 21.9 µM | 27.1 µM | 27.6 µM | 29.2 µM | 29.2 µM | 12.7 µM | 33 µM | 21.4 µM |  |  |  |  |  |  |  |  |  |  | 
23 | CN=S(=O)(c1ccccc1)c1ccccc1 | > 100 µM | > 100 µM | > 100 µM | > 100 µM | > 100 µM | > 100 µM | > 100 µM | > 100 µM | > 100 µM |  |  |  |  |  |  |  |  |  |  | 
